Data: US20250188098A1, “CARBORANE COMPOUNDS AND METHODS OF USE THEREOF” (Ohio State Innovation Foundation, priority 2023, published 2025)
Where two headings read alike, the source gives them in different places.

How the values were obtained:
[1] = Mouse PO pharmacokinetic study; settings: absolute bioavailability, PO 10 mg/kg
[2] = Simulated pharmacokinetics at uterotrophic ED50 dose
[3] = molecular target: T1, mERα (Mus musculus, UniProt P19785); experiment: Predicted mERα activation at uterotrophic dose (simulated Cmax / mERα EC50); settings: values >1: peak plasma concentration exceeds concentration to activate mouse ERα
T1 sequence (P19785 1-599): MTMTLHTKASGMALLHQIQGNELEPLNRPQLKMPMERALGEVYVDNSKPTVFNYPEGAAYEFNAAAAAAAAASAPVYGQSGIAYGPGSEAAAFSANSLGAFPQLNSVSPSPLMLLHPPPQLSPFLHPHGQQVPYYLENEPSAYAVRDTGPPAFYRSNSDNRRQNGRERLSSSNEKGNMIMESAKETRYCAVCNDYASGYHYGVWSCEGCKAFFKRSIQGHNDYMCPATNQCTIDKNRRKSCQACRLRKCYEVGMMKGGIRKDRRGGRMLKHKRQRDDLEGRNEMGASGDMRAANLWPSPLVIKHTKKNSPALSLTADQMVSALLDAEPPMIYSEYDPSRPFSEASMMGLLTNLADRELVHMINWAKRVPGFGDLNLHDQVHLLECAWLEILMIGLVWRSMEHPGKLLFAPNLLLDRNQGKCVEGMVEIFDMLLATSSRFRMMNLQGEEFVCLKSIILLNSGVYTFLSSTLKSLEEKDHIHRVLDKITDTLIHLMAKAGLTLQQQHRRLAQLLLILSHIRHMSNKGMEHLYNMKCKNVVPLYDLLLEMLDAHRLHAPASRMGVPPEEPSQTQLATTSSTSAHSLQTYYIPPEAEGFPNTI

[4] = molecular target: T2, ERβ (Homo sapiens, UniProt Q92731); experiment: Estrogen receptor radioligand binding assay, hERβ; set-up: expressed in transfected cells
Protocol: Estrogen Receptor Radio Ligand Binding Assays. […] Briefly, ERα and ERβ were obtained from recombinant insect Sf9 cells overexpressing either human receptor. [^3H] Estradiol (0.5 nM) and Diethylstilbestrol (1 μM) were used as radio-ligand and ER binding ligand positive controls, respectively. To determine the IC50, each analog was tested at several concentrations depending on the receptor being challenged. The test concentrations ranged from 1 pM-10 μM for ERβ, and 10 pM-100 μM for ERα and were performed in duplicate. The IC50 values were determined by non-linear least squares regression analysis using MathIQ™ (ID Business Solutions Ltd., UK). […] The Hill coefficients of the competition curves were calculated using MathIQ™.
Target sequence in this assay (Q92731 whole entry): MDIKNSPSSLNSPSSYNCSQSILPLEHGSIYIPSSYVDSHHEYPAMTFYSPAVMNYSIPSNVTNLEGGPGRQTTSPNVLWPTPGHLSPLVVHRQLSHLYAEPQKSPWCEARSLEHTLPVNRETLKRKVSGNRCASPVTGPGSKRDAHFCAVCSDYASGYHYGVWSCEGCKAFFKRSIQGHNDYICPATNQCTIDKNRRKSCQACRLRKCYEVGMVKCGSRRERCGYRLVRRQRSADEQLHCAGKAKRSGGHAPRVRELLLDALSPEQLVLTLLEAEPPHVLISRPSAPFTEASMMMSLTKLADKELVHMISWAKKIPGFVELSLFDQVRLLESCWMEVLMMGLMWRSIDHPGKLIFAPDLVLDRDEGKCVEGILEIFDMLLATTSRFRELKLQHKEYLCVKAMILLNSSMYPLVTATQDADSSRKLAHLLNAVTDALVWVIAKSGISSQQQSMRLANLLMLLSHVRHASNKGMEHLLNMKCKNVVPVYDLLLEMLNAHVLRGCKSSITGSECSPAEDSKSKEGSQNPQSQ

[5] = molecular target: T2, ERβ; experiment: ER luciferase transcriptional activation assay in transfected HEK-293 cells, hERβ
Target sequence in this assay (Q92731 whole entry): as above

[6] = test system: estrogen-naïve female mice; experiment: Uterotrophic assay; settings: oral once daily for 4 days; dose giving 50% of the uterotrophic effect of estradiol
[7] = molecular target: T3, hERα (Homo sapiens, UniProt P03372); experiment: ER luciferase transcriptional activation assay in transfected HEK-293 cells, hERα; type: cell-based; set-up: expressed in transfected cells; host or cells: HEK-293 (CRL-1573, ATCC), transient transfection with pcDNA3-hERα and pGL4.26-3×ERE; settings: transactivation
T3 sequence (P03372 1-595): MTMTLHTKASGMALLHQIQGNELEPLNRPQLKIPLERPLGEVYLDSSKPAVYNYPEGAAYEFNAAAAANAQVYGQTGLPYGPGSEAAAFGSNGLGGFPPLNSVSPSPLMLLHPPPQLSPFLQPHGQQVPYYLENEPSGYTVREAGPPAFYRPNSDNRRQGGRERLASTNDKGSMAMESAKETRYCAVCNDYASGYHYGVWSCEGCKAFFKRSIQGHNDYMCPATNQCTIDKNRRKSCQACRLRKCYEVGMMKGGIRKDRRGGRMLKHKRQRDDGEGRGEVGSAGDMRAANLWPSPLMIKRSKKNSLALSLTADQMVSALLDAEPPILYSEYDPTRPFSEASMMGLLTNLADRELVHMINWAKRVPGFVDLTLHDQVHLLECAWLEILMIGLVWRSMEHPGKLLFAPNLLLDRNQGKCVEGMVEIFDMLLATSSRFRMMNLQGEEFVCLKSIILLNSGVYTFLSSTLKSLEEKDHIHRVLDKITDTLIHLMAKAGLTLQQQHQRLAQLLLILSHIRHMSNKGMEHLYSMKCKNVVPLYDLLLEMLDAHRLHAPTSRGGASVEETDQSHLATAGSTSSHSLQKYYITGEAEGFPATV

[8] = molecular target: mouse ERβ (Mus musculus, UniProt O08537); experiment: ER luciferase transcriptional activation assay in transfected HEK-293 cells, mERβ
[9] = molecular target: T3, hERα; experiment: Predicted hERα activation at uterotrophic dose (simulated Cmax / hERα EC50); settings: values >1: peak plasma concentration exceeds concentration to activate hERα
[10] = molecular target: T3, hERα; experiment: Estrogen receptor radioligand binding assay, hERα; settings: [3H]estradiol competition, recombinant human receptor from Sf9 cells
[11] = Mouse IV pharmacokinetic study; type: in vivo
[12] = molecular target: T4, mouse ERα (Mus musculus, UniProt P19785); experiment: ER luciferase transcriptional activation assay in transfected HEK-293 cells, mERα; settings: read-out: mERα EC50, nM (95% CI); transactivation, HEK-293
T4 sequence (P19785 1-599): T1 sequence (P19785 1-599)

[13] = molecular target: T2, ERβ; settings: cited from earlier work
Target sequence in this assay (Q92731 whole entry, species assumed): as the sequence (Q92731 whole entry) above

[14] = mouse; cited from earlier work
[15] = simulated at uterotrophic ED50 oral dose

mouse ERβ, sequence (O08537 whole entry): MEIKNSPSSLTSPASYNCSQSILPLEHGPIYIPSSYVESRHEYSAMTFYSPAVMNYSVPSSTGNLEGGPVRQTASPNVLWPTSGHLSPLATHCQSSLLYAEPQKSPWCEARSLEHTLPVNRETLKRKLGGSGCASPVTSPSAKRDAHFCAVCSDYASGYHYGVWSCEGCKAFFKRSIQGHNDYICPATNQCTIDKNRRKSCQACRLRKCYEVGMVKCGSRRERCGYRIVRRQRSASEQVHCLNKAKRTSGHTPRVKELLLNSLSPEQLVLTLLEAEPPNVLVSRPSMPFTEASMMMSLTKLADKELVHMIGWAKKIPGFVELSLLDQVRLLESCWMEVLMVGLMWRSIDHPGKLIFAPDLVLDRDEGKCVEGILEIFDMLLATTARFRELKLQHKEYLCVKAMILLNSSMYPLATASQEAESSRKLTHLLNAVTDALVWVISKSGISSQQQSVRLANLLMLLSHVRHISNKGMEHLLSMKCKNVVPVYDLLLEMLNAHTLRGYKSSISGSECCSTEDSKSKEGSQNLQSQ

Compound: 1-(4-hydroxyphenyl)-7-(butyl)-1,7-dicarba-closododecaborane [Compound 6]
- F (%) [1]: 1.3%
- fold by which uterotrophic Cmax of OSU-ERβ-12 is higher than that of the analog ([2]; simulated at uterotrophic ED50 dose): 176 fold
- Uterotrophic ED50 AUC0-24hr [2, 15]: 1.7 µM·h
- Uterotrophic ED50 Cmax [2, 15]: 500 nM
- (Uterotrophic ED50 Cmax)/mERα EC50 [3]: 21.6
- Ki ([4]; [3H]estradiol competition, recombinant human receptor from Sf9 cells): 4 nM
- Binding Selectivity ([4]; ratio of Ki hERα/hERβ): 4.1
- Transactivation Selectivity (human) ([5]; ratio of EC50 hERα/hERβ): 74
- EC50 ([5]; read-out: hERβ EC50, nM (95% CI), transactivation, HEK-293): 35 nM
- Uterotrophic ED50, mg/kg (95% CI) [6]: 24.6 mg/kg
- EC50 ([7]; read-out: hERα EC50, nM (95% CI), HEK-293): 2580 nM
- EC50 ([7]; read-out: hERα EC50, μM (95% CI), as listed in Tables 7A/7B): 2600 nM
- Transactivation Selectivity (mouse) ([8]; ratio of EC50 mERα/mERβ): 2.7
- EC50 ([8]; read-out: mERβ EC50, nM (95% CI), transactivation, HEK-293): 8.6 nM
- (Uterotrophic ED50 Cmax)/hERα EC50 [9]: 0.2
- Ki [10]: 16.5 nM
- fold higher IV clearance than OSU-ERβ-12 [11]: ~3 fold
- EC50 [12]: 23.1 nM

Compound: CCN(CC)CCCC(C)NC(=O)c1ccc2c(c1)C(=O)c1ccccc1C2=O (stereo not drawn) [CIDD-0149897]
- selectivity over ERα [13]: 40 fold
- EC50 ([13]; read-out: ERβ potency EC50): 234 nM
- systemic clearance following an IV dose [14]: 700 mL/h
